Laboratory results published in ChEMBL document CHEMBL4418284, “Hypdh inhibitors and methods of use for the treatment of kidney stones” (2018).

Target: T1, Hydroxyproline dehydrogenase (Homo sapiens, UniProt Q9UF12)
T1 sequence (Q9UF12 whole entry): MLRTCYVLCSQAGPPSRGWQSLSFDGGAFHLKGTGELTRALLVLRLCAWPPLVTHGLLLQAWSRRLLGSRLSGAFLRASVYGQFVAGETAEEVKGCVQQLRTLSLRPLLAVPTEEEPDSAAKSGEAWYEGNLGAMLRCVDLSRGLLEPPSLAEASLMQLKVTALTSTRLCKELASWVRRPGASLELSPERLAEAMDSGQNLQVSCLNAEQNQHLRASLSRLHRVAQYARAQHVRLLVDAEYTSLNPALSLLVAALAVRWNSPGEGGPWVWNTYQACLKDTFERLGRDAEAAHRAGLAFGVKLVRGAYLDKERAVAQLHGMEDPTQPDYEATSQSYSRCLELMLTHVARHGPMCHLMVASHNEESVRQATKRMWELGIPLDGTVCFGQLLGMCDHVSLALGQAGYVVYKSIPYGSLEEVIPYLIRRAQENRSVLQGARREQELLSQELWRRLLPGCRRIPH
Assay: Inhibition of human recombinant HYPDH expressed in Escherichia coli using hydroxyproline as substrate preincubated for 5 mins followed by substrate addition in presence of FAD as cofactor

O=C(O)c1ccco1 was tested, and the IC50 was “Nd(Insoluble)”.
